Test results published in patent publication US20230181521A1, “IS[…] ANALOGS OF 5,6-METHYLENEDIOXY-2-AMINOINDANE (MDAI)” (Terran Biosciences, Inc., priority 2021, published 2023).
Counter-ions that a name gives are not always drawn.

What was measured:
[1] = Metabolic stability in human liver microsomes; type: in vitro ADME; details: for half-life at 0.25 μM: pH 7.4; for microsomal CLint at 0.25 μM: pH 7.4, read-out: CLint (μL/min/mg protein); for in vitro clearance compared with MDAI HCl salt (reference compound): tested as racemic mixtures
Description: Microsomal Assay: Human liver microsomes (20 mg/mL) were obtained. β-nicotinamide adenine dinucleotide phosphate, reduced form (NADPH), magnesium chloride (MgCl2), and dimethyl sulfoxide (DMSO) are purchased from Sigma-Aldrich.
Determination of Metabolic Stability: 7.5 mM stock solutions of test compounds of the above structural formula (e.g., of an embodiment or aspect of embodiment thereof described herein), or pharmaceutically acceptable salt thereof, are prepared in DMSO. […] The diluted microsomes are added to wells of a 96-well deep-well polypropylene plate in triplicate. […] Reactions are initiated by addition of pre-warmed NADPH solution. The final reaction volume is 0.5 mL and contains 4.0 mg/mL human liver microsomes, 0.25 μM test compound, and 2 mM NADPH in 0.1 M potassium phosphate buffer, pH 7.4, and 3 mM MgCl2. The reaction mixtures are incubated at 37° C., and […] aliquots are removed at 0, 5, 10, 20, and 30 minutes and added to shallow-well 96-well plates which contain […] of ice-cold ACN (acetonitrile) with internal standard to stop the reactions. The plates are stored at 4° C. for 20 minutes after which […] of water is added to the wells of the plate before centrifugation to pellet precipitated proteins. Supernatants are transferred to another 96-well plate and analyzed for amounts of parent remaining by LC-MS/MS using an Applied Bio-systems API 4000 mass spectrometer. The same procedure is followed for the non-labeled, such as the non-deuterated counterpart of the compound and the positive control, 7-ethoxycoumarin (1 μM). Testing is done in triplicate.
Data analysis: The in vitro T1/2s for test compounds are calculated from the slopes of the linear regression of % parent remaining (In) vs incubation time relationship.
k=−[slope of linear regression of % parent remaining (In) vs incubation time] The apparent intrinsic clearance is calculated using the following equation: […]
Data analysis is performed using Microsoft Excel Software.

Male Sprague-Dawley rats = test: Rat elevated zero maze test (model of anxiety); type: in vivo
Excerpt: The rat zero-maze model is a refined alternative to the plus-maze, the most widely used animal model of anxiety, and consists of an elevated annular platform, divided equally into four quadrants. Two opposite quadrants are enclosed by Perspex walls on both the inner and the outer edges of the platform, while the remaining two opposite quadrants are open being enclosed only by a Perspex “lip”. Animals will show a preference for the closed areas, and avoidance of the open sections is assumed to stem from a rodent's natural aversion to open, exposed spaces. The primary index of anxiety, which reflect changes in open arm preference, is the percentage of time spent on the open areas. A reduction in the amount of activity on the open areas is considered to reflect an increase in anxiety while an increase in time in the open arms is indicative of an anxiolytic effect. Other, ethologically-based behaviors are also assessed as indices of anxiety including total open arm entries, total line crossings, and the frequency of exploratory head dipping over the edge of the platform (HDIPS). • Shepherd, J K; Grewel, SS; Fletcher, A; Bill, DJ; Dourish, C T (1994) Behavioural and pharmacological validation of the elevated “zero-maze” as an animal model of anxiety. Psychopharmacol., 116:56-64.
Male Sprague-Dawley 200-250 g (Envigo UK) rats were used. Animals were group-housed (5 per cage; cage size: 40×40×20 cm) in a temperature-controlled environment (22±2° C.), under a 12 h light-dark cycle (lights on: 08:00 hours) for one week prior to testing. Food and water were freely available. Number of animals per group=5. Animals were moved into the experimental room 16-24 hours before testing.
The elevated 0-maze comprises a black Perspex annular platform (105 cm diameter, 10 cm width) elevated to 65 cm above ground level, divided equally into four quadrants. Two opposite quadrants are enclosed by clear red Perspex walls (27 cm high) on both the inner and outer edges of the platform, while the remaining two opposite quadrants are surrounded only by a Perspex “lip” (1 cm high) which serves as a tactile guide to animals on these open areas.
Subjects were weighed and tail marked before being injected. After a specified pre-treatment time, subjects were placed in a closed quadrant and a 5-min test period were recorded on videotape for subsequent analysis. The maze was cleaned with 5% methanol/water solution and dried thoroughly between test sessions. Behavioural measures comprise percentage time spent on the open areas (% TO). Animals are scored as being in the open area when all four paws were in an open quadrant and in the closed area only when all four paws have passed over the open-closed divide. All testing were carried out between 9.00 and 16.00 hours.
IP: MDAI (HCl salt with 82.94% free base content) was formulated in Vehicle 1 (Saline) for injection to concentrations of […] to provide doses of 0.15, 0.31, 0.625, 1.25 and 2.5 mg/kg when administered ip in 5 mL/kg dosing volumes.
Chlordiazepoxide was formulated in Vehicle 1 (saline) to a concentration of 1.2 mg/mL to provide a dose of 6 mg/kg when administered ip in 5 mL/kg dosing volumes.
35 male Sprague-Dawley rats in treatment groups of 2 or 5, was intraperitoneally dosed with either Vehicle 1 (saline) or MDAI at 1 of 5 dose levels (0.15, 0.31, 0.625, 1.25 and 2.5) or chlordiazepoxide (6 mg/kg) in 5 mL/kg injection volumes. Thirty min later at T=0, rats were individually placed in a closed arm of the zero-maze and behavior assessed by a “blind” observer using remote video monitoring over the subsequent 5 min. The animal was then removed and the maze carefully wiped with 5% methanol/water solution before the next test was begun. Three rats from the vehicle group, 3 rats from the 2.5 mg/kg MDAI group, and 3 rats from the CDP group were tested on a separate day from the other rats.
Data was analysed with Statistica software (Statsoft USA version 10.0). […]

[2] = Double-blind, randomized, placebo-controlled clinical trial of MDAI-assisted psychotherapy in PTSD; type: in vivo
Description: A multicenter, randomized, double-blind, placebo-controlled trial is conducted to assess the efficacy and safety of MDAI-assisted psychotherapy versus psychotherapy with placebo control in participants diagnosed with at least moderate post-traumatic stress disorder (PTSD).
This multicenter, randomized, double-blind, placebo-controlled trial is conducted at various sites in the United States with IRB approval from each study site. A flexible dose of MDAI hydrochloride salt or placebo, followed by a supplemental half-dose unless contraindicated by patient's previous response or medical history, is also administered during the Treatment Period with psychotherapy in at least 3 blinded monthly Experimental Sessions. The Supplemental Dose extends the duration of drug effects on the participants during an Experimental Session. An optional Risk Evaluation and Mitigation Strategy (REMS) Protocol may be implemented for MDAI and placebo-groups. The Treatment Period lasts for approximately 12 weeks. During the Treatment Period, each Experimental Session is followed by three Intervening Sessions of non-drug psychotherapy. Each Experimental Session involves an overnight stay. The Primary Outcome measure, the change in Clinician Administered PTSD Scale for DSM-5 (CAPS-5), is determined by a blinded Independent Rater (IR) pool multiple times throughout the study. The study consists of separate periods for each participant. Initially, prospective participants undergo a Screening Period involving an initial eligibility assessment, a medical history intake, informed consent, and enrollment of eligible participants. Next, a Preparation Period is undertaken for enrolled participants involving medication tapering and clinical baseline assessments to confirm each participant meets enrollment criteria. As part of the Preparation Period, a detailed assessment of co-morbidities to PTSD is recorded. Participants may remain on prescribed courses of selective serotonin reuptake inhibitor (SSRI) or serotonin and norepinephrine reuptake inhibitor (SNRI) treatment. Dosages and/or frequency of administration of a prescribed SSRI or SNRI may be adjusted to fit within study parameters. Participants may be required to taper a prescribed course of medication in order to maintain eligibility within the study. The Treatment Period consists of three monthly Experimental Sessions and associated Intervening Sessions of integrative behavioral psychotherapy. The Treatment Period lasts approximately 12 weeks. Following the Treatment Period is a Follow-up Period and Study Conclusion. During the Follow-up Period and Study Conclusion, participants complete 4 weeks with no study visits, followed by a Study Conclusion visit.
This study compares the effects of three blinded Experimental Sessions of psychotherapy in combination with flexible doses of MDAI or placebo administered as described below. Non-drug preparatory and intervening psychotherapy sessions are also included. Patient's weight is determined for dosage calculation. Initial dose is 100 mg unless this will result in a dosage of less than 1.5 mg/kg of patient weight. Initial dose thereby adjusted upward in 50 mg increments to deliver the lowest dose possible of at least 1.5 mg/kg of patient weight. Initial dose for Experimental Session 2 and 3 is cumulative dose calculated by adding the initial dose plus REMS protocol dose used the previous Experimental Session for each patient.
Randomization occurs prior to the initiation of Experimental Session 1. Each participant is provided the next randomized number in a sequence by a blinded study monitor. Participants are then randomized, according to a computer-generated randomization schedule, […] to MDAI or placebo. The randomization schedule is prepared and implemented by an independent statistician. Participants, clinicians, and study teams are blinded to treatment allocation. MDAI treatment groups may be subjected to anxiogenic effects due to underdosing of participants. […]

[3] = cited from earlier work
[4] = Progress in Neuro-Psychopharmacology & Biological Psychiatry 69, 2016, 49-59; cited from earlier work
[5] = at Study Conclusion, vs placebo-treated controls
[6] = 6 mg/kg ip, 30 min before test, vs vehicle

SMILES: [2H]C1([2H])Oc2cc3c(cc2O1)CC(N)C3 [Compound 1, 2,2-Dideuterio-6,7-dihydro-5H-cyclopenta[f][1,3]benzodioxol-6-amine Hydrochloride]
- half-life and intrinsic clearance compared to MDAI HCl (reference compound) [1]: exhibit differences
- half-life at 0.25 μM [1]: 3.27 h
- microsomal CLint at 0.25 μM [1]: 7.09 µL/min/mg

SMILES: [2H]C1([2H])Oc2cc3c(cc2O1)C([2H])([2H])C([2H])(N)C3([2H])[2H] [Compound 2, 2,2,5,5,6,7,7-Heptadeuteriocyclopenta[f][1,3]benzodioxol-6-amine Hydrochloride]
- half-life and intrinsic clearance compared to MDAI HCl (reference compound) [1]: exhibit differences
- half-life at 0.25 μM [1]: 3.83 h
- microsomal CLint at 0.25 μM [1]: 6.04 µL/min/mg

SMILES: [2H]C1(N)Cc2cc3c(cc2C1([2H])[2H])OCO3 (racemic) [Compound 3, 6,7,7-Trideuterio-5H-cyclopenta[f][1,3]benzodioxol-6-amine hydrochloride]
- half-life at 0.25 μM [1]: 7.42 h
- microsomal CLint at 0.25 μM [1]: 3.12 µL/min/mg
- in vitro clearance compared with MDAI HCl salt (reference compound) [1]: significantly lower

SMILES: NC1Cc2cc3c(cc2C1)OCO3 [MDAI, 5,6-Methylenedioxy-2-aminoindane]
- half-life at 0.25 μM [1]: 3.42 h
- microsomal CLint at 0.25 μM [1]: 6.78 µL/min/mg
- percentage of time in the open arms (% TO) (Male Sprague-Dawley rats; 0.625 mg/kg ip, 30 min before test, vs vehicle or any other dose (FIG. 1)): numerical increase
- percentage of time in the open arms (% TO) (Male Sprague-Dawley rats; doses too low or too high (0.15, 0.31, 1.25, 2.5 mg/kg ip)): opposite effect
- total open arm entries (Male Sprague-Dawley rats; higher and lower doses (0.15, 0.31, 1.25, 2.5 mg/kg ip), FIG. 2): trended towards an anxiogenic effect
- total open arm entries (Male Sprague-Dawley rats; middle dose (0.625 mg/kg ip), FIG. 2): increase vs placebo that trended towards significance
- CAPS-5 assessments compared to placebo-treated controls ([2]; Intervening Session 1C, 2C, 3C and Study Conclusion): Significant improvements
- CAPS-5 assessment compared to the placebo group ([2]; PTSD participants, at Study Conclusion): significant mean reduction
- lessening daytime sleepiness as measured by ESS ([2]; at Study Conclusion): significant improvement
- adverse anxiogenic incidents [2, 5]: without a significant increase
- clinician-rated functional impairment score as measured by SDS [2, 5]: significant improvement
- depression as measured by HAM-D [2, 5]: significant improvement
- Oral MDAI dose, drug activity level Threshold [3]: 40 mg
- Oral MDAI dose, drug activity level Very Strong [3]: ≥300 mg
- toxicity reported associated with MDAI intoxication [4]: serotonin syndrome

SMILES: CNC1=Nc2ccc(Cl)cc2C(c2ccccc2)=[N+]([O-])C1 [CDP, Chlordiazepoxide]
- frequency of HDIPS (Male Sprague-Dawley rats; [6]): trend towards increased
- percentage of time in the open arms (% TO) (Male Sprague-Dawley rats; [6]): significant increase
- total line crossings (Male Sprague-Dawley rats; [6]): trend towards increased
- total open arm entries (Male Sprague-Dawley rats; [6]): trend towards increased

SMILES: [2H]C1([2H])c2cc3c(cc2C([2H])([2H])C1([2H])N)OCO3 [Compound 5, 5,5,6,7,7-Pentadeuteriocyclopenta[f][1,3]benzodioxol-6-amine hydrochloride]
- half-life at 0.25 μM [1]: 3.42 h
- microsomal CLint at 0.25 μM [1]: 6.78 µL/min/mg

SMILES: [2H]C1([2H])Oc2cc3c(cc2O1)C([2H])([2H])C([2H])(N)C3 (racemic) [Compound 4, 2,2,6,7,7-Pentadeuterio-5H-cyclopenta[f][1,3]benzodioxol-6-amine hydrochloride]
- half-life at 0.25 μM [1]: 7.97 h
- microsomal CLint at 0.25 μM [1]: 2.9 µL/min/mg
- in vitro clearance compared with MDAI HCl salt (reference compound) [1]: significantly lower

SMILES: COc1ccc2c(c1)[C@]13CCCC[C@@H]1[C@H](C2)N(C)CC3 [dextromethorphan]
- half-life at 0.25 μM [1]: 0.433 h
- microsomal CLint at 0.25 μM [1]: 53.5 µL/min/mg
